From patent US20250186541A1, “DLL3 TARGETING PEPTIDES AND CONSTRUCTS THEREOF” (MARIANA ONCOLOGY INC., priority 2023, published 2025)
Numbered stars: 1 amine (or outer) side, 2 acyl side, 3 side chain; on linkers, the order of the positions; unused ones are H or OH. Bridge positions count the residues as written; N and C are the ends. Square brackets hold non-standard residues; d marks the D form. Side chains are listed from the residue outwards. Peptide text beside a SMILES is read from it. * marks the point of attachment. X2 = O=C(O)CN1CCN(CC(=O)O)CCN(CC(=O)N[C@@H](CCCCN*)C(=O)O)CCN(CC(=O)O)CC1; DOTA = O=C(O)CN1CCN(CC(=O)O)CCN(CC(=O)*)CCN(CC(=O)O)CC1; 1Nal = N[C@@H](Cc1cccc2ccccc12)C(=O)O; 2Nal = N[C@@H](Cc1ccc2ccccc2c1)C(=O)O; Phe(2-Me) = Cc1ccccc1C[C@H](N)C(=O)O; mXylylene = c1cc(C[*:1])cc(C[*:2])c1; Trx = NC[C@H]1CC[C@H](C(=O)O)CC1; tBuAla = CC(C)(C)C[C@H](N)C(=O)O; Chg = N[C@H](C(=O)O)C1CCCCC1; αMeP = C[C@@]1(C(=O)O)CCCN1; CH2 = C([*:1])[*:2]; Ahx = NCCCCCC(=O)O

The molecules below were run against T1, human DLL3 (Homo sapiens, UniProt Q9NYJ7) (assay: Affinity determination by Surface Plasmon Resonance (SPR), Biacore, 1:1 binding model). Settings: biotinylated human DLL3 on streptavidin chip, 25° C.; NB = nonbinding.
T1 construct: biotin (biotinylated)
T1 sequence (Q9NYJ7 27-618): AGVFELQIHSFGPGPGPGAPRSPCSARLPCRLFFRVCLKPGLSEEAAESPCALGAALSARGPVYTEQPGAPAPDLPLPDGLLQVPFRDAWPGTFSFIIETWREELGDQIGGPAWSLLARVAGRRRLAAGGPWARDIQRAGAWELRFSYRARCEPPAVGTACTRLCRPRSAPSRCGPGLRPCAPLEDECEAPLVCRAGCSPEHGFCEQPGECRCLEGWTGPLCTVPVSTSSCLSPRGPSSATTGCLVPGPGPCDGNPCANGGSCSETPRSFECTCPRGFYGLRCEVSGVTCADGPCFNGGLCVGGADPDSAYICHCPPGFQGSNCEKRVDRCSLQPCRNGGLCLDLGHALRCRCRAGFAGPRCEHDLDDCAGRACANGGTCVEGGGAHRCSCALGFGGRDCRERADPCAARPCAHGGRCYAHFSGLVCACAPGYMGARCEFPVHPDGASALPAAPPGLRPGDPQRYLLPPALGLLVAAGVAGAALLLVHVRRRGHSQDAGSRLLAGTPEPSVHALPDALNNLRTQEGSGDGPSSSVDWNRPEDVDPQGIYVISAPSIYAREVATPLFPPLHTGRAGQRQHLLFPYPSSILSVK
Description: Example 3. Binding Affinity of Targeting Moieties Polypeptides to DLL3 Affinity Determination by Surface Plasmon Resonance (SPR)
SPR studies were performed on the compounds disclosed herein using the following protocol. […] Biotinylated target ligand human DLL3 was immobilized on a streptavidin sensor chip. A reference surface was set up for nonspecific binding and refractive index changes. For analysis of the kinetics of interactions, varying concentrations of samples were injected at a flow rate of 100 μL/min using running buffer containing 20 mM phosphate buffer with 2.7 mM KCl, 137 mM NaCl, 0.05% Surfactant P20 and 2% DMSO. Sensorgram curves were fitted with 1:1 binding model, and affinity and kinetic parameters were obtained using Biacore Insight evaluation 4.0. software.
CC(=O)N[C@H](C)C(=O)N[C@@H](CO)C(=O)N[C@@](C)(CC(=O)O)C(=O)N[C@H]1C/C=C/C[C@@H](C(=O)N2CCC[C@@]2(C)C(=O)N[C@@H](Cc2ccccc2)C(=O)N[C@@H](CC(=O)O)C(N)=O)NC(=O)[C@H](CC(N)=O)NC(=O)[C@H](Cc2ccc3ccccc3c2)NC(=O)[C@H](Cc2ccc(CNC(=O)CN3CCN(CC(=O)O)CCN(CC(=O)O)CCN(CC(=O)O)CC3)cc2)NC(=O)[C@H](CC(C)(C)C)NC(=O)[C@H](Cc2cccc3ccccc23)NC1=O (single isomer, unassigned) [Cpd #193, Ac-(D-Ala)-S-(aMe-Asp)-AllyG(4)-(1Nal)-(t-Bu-Ala)-[PAF(DOTA)]-(2Nal)-N-AllyG(4)-(aMe-P)-F-D-CONH2] gave a Kd of 0.113 nM. CSCC[C@H](NC(C)=O)C(=O)N[C@@H](CO)C(=O)N[C@@H](CC(=O)O)C(=O)N[C@H]1CSSC[C@@H](C(=O)N2CCC[C@H]2C(=O)N[C@@H](Cc2ccccc2)C(=O)N[C@@H](CC(=O)O)C(N)=O)NC(=O)[C@H](CC(N)=O)NC(=O)[C@H](Cc2c[nH]c3ccccc23)NC(=O)[C@H](CCC(N)=O)NC(=O)[C@H](CC(C)C)NC(=O)[C@H](Cc2c[nH]c3ccccc23)NC1=O [Cpd #1, Ac-M-S-D-C(3)-W-L-Q-W-N-C(3)-P-F-D-CONH2] (Ac-MSDCWLQWNCPFD-NH2; disulfide 4-10) showed a Kd of 11 nM. Molecule CSCC[C@H](NC(=O)CCCCCNC(=O)CN1CCN(CC(=O)O)CCN(CC(=O)O)CCN(CC(=O)O)CC1)C(=O)N[C@@H](CO)C(=O)N[C@@H](CC(=O)O)C(=O)N[C@H]1CSSC[C@@H](C(=O)N2CCC[C@H]2C(=O)N[C@@H](Cc2ccccc2)C(=O)N[C@@H](CC(=O)O)C(N)=O)NC(=O)[C@H](CC(N)=O)NC(=O)[C@H](Cc2c[nH]c3ccccc23)NC(=O)[C@H](CCC(N)=O)NC(=O)[C@H](CC(C)C)NC(=O)[C@H](Cc2c[nH]c3ccccc23)NC1=O [Cpd #7, DOTA-Ahx-M-S-D-C(3)-W-L-Q-W-N-C(3)-P-F-D-CONH2] ({DOTA-Ahx}-MSDCWLQWNCPFD-NH2; disulfide 4-10) has a Kd of 14 nM. CC(=O)N[C@@H](CO)C(=O)N[C@@H](CC(=O)O)C(=O)N[C@H]1CSCSC[C@@H](C(=O)N2CCC[C@H]2C(=O)N[C@@H](Cc2ccccc2)C(=O)N[C@@H](CC(=O)O)C(=O)N[C@H](CCCCNC(=O)CN2CCN(CC(=O)O)CCN(CC(=O)O)CCN(CC(=O)O)CC2)C(N)=O)NC(=O)[C@H](CC(N)=O)NC(=O)[C@H](Cc2c[nH]c3ccccc23)NC(=O)[C@H](CCC(N)=O)NC(=O)[C@H](CC(C)C)NC(=O)[C@H](Cc2c[nH]c3ccccc23)NC1=O [Cpd #66, Ac-S-D-C(1)-W-L-Q-W-N-C(1)-P-F-D-D-Lys(DOTA)-CONH2] (Ac-SDCWLQWNCPFD[dK](DOTA)-NH2; linker 3-9 via CH2) was tested, and the Kd was > 300 nM. CC(=O)N[C@H](C(=O)N[C@@H](CO)C(=O)N[C@@H](CC(=O)O)C(=O)N[C@H]1CSCc2cccc(c2)CSC[C@@H](C(=O)N2CCC[C@@]2(C)C(=O)N[C@@H](Cc2ccccc2)C(=O)N[C@@H](CC(=O)O)C(=O)N[C@H](CCCCNC(=O)CN2CCN(CC(=O)O)CCN(CC(=O)O)CCN(CC(=O)O)CC2)C(N)=O)NC(=O)[C@H](CC(N)=O)NC(=O)[C@H](Cc2c[nH]c3ccccc23)NC(=O)[C@H](CCC(N)=O)NC(=O)[C@H](CC(C)C)NC(=O)[C@H](Cc2cccc3ccccc23)NC1=O)C1CCCCC1 [Cpd #144, Ac-(Chg)-S-D-C(mDBX)-(1Nal)-L-Q-W-N-C(2)-(aMe-P)-F-D-D-Lys(DOTA)-CONH2] (Ac-[Chg]SDC[1Nal]LQWNC[αMeP]FD[dK](DOTA)-NH2; linker 4-10 via mXylylene) was tested, and the Kd was > 30 nM. In the case of CNC(=O)[C@@H](CCCCNC(=O)CN1CCN(CC(=O)O)CCN(CC(=O)O)CCN(CC(=O)O)CC1)NC(=O)[C@H](CC(=O)O)NC(=O)[C@H](Cc1ccccc1)NC(=O)[C@]1(C)CCCN1C(=O)[C@@H]1CSSC[C@H](NC(=O)[C@H](CC(=O)O)NC(=O)[C@H](CO)NC(=O)[C@@H](C)NC(C)=O)C(=O)N[C@@H](Cc2cccc3ccccc23)C(=O)N[C@@H](CC(C)(C)C)C(=O)N[C@@H](CCC(N)=O)C(=O)N[C@@H](Cc2ccc3ccccc3c2)C(=O)N[C@@H](CC(N)=O)C(=O)N1 [Cpd #147, Ac-(D-Ala)-S-D-C(3)-(1Nal)-(t-Bu-Ala)-Q-(2Nal)-N-C(3)-(aMe-P)-F -D-[D-Lys(DOTA)]-CONHMe] (Ac-[dA]SDC[1Nal][tBuAla]Q[2Nal]NC[αMeP]FD[dK](DOTA)-NHMe; disulfide 4-10), the Kd is reported as 0.13 nM. In the case of CC(=O)N[C@H](C)C(=O)N[C@@H](CO)C(=O)N[C@@H](CC(=O)O)C(=O)N[C@H]1CSSC[C@@H](C(=O)N2CCC[C@@]2(C)C(=O)N[C@@H](Cc2ccccc2C)C(=O)N[C@@H](CC(=O)O)C(=O)N[C@H](CCCCNC(=O)CN2CCN(CC(=O)O)CCN(CC(=O)O)CCN(CC(=O)O)CC2)C(=O)O)NC(=O)[C@H](CC(N)=O)NC(=O)[C@H](Cc2ccc3ccccc3c2)NC(=O)[C@H](CCC(N)=O)NC(=O)[C@H](CC(C)(C)C)NC(=O)[C@H](Cc2cccc3ccccc23)NC1=O [Cpd #150, Ac-(D-Ala)-S-D-C(3)-(1Nal)-(t-Bu-Ala)-Q-(2Nal)-N-C(3)-(aMe-P)-(2Me-F)-D-[D-Lys(DOTA)]-COOH] (Ac-[dA]SDC[1Nal][tBuAla]Q[2Nal]NC[αMeP][Phe(2-Me)]D[dK](DOTA)-OH; disulfide 4-10), the Kd is reported as 0.13 nM. For CC(=O)N[C@H](C)C(=O)N[C@H](CO)C(=O)N[C@@H](CC(=O)O)C(=O)N[C@H]1CSSC[C@@H](C(=O)N2CCC[C@@]2(C)C(=O)N[C@@H](Cc2ccccc2C)C(=O)N[C@@H](CC(=O)O)C(N)=O)NC(=O)[C@H](CC(N)=O)NC(=O)[C@H](Cc2ccc3ccccc3c2)NC(=O)[C@H](CCCCNC(=O)[C@H]2CC[C@H](CNC(=O)CN3CCN(CC(=O)O)CCN(CC(=O)O)CCN(CC(=O)O)CC3)CC2)NC(=O)[C@H](CC(C)(C)C)NC(=O)[C@H](Cc2cccc3ccccc23)NC1=O [Cpd #151, Ac-(D-Ala)-S-D-C(3)-(1Nal)-(t-Bu-Ala)-[L-Lys(Chx-DOTA)]-(2Nal)-N-C(3)-(aMe-P)-(2Me-F)-D-CONH2] (Ac-[dA][dS]DC[1Nal][tBuAla]K([Trx-DOTA])[2Nal]NC[αMeP][Phe(2-Me)]D-NH2; disulfide 4-10), the Kd was 0.28 nM. Molecule CC(=O)N[C@H](C)C(=O)N[C@@H](CO)C(=O)N[C@@H](CC(=O)O)C(=O)N[C@H]1CSSC[C@@H](C(=O)N2CCC[C@@]2(C)C(=O)N[C@@H](Cc2ccccc2C)C(=O)N[C@@H](CC(=O)O)C(N)=O)NC(=O)[C@H](CC(N)=O)NC(=O)[C@H](Cc2ccc3ccccc3c2)NC(=O)[C@H](CCC(=O)NCCCC[C@H](NC(=O)CN2CCN(CC(=O)O)CCN(CC(=O)O)CCN(CC(=O)O)CC2)C(=O)O)NC(=O)[C@H](CC(C)(C)C)NC(=O)[C@H](Cc2cccc3ccccc23)NC1=O [Cpd #153, Ac-(D-Ala)-S-D-C(3)-(1Nal)-(t-Bu-Ala)-[Glu(εLys(OH)-(DOTA))]-(2Nal)-N-C(3)-(aMe-P)-(2Me-F)-D-CONH2] (Ac-[dA]SDC[1Nal][tBuAla]E(X2)[2Nal]NC[αMeP][Phe(2-Me)]D-NH2; disulfide 4-10) has a Kd of 0.51 nM.
